Reference: BindingDB's records for doi:10.1016/0960-894X(96)00057-1 (1996)

Columns and labels:
[1] = Compound was tested for inhibition of HL60 cell adhesion to recombinant P-selectin-IgG fusion protein obtained from transfected COS cells
[2] = as above; remark: listed apart in the source

Compound	IC50 [1] [µM]	IC50 [2] [µM]
CC(=O)N[C@@H]1[C@H](OCCCCCCNC(=O)[C@H]2CC[C@H](CN3C(=O)C=CC3=O)CC2)O[C@@H](CO)[C@@H](O[C@@H]2O[C@@H](CO)[C@H](O)[C@H](O[C@]3(C(=O)O)C[C@@H](O)[C@@H](NC(C)=O)[C@H]([C@H](O)[C@H](O)CO)O3)[C@@H]2O)[C@@H]1O[C@@H]1O[C@@H](C)[C@@H](O)[C@H](O)[C@@H]1O [Sialyl-LewisX Conjugate]	380	
CC(=O)N[C@@H]1[C@H](OCCCCCC/N=C(S)/N=C2\C=CC(=C3c4ccc(O)cc4Oc4cc(O)ccc43)C(C(=O)O)=C2)O[C@@H](CO)[C@@H](O[C@@H]2O[C@@H](CO)[C@H](O)[C@H](O[C@]3(C(=O)O)C[C@@H](O)[C@@H](NC(C)=O)[C@H]([C@H](O)[C@H](O)CO)O3)[C@@H]2O)[C@@H]1O[C@@H]1O[C@@H](C)[C@@H](O)[C@H](O)[C@@H]1O		900
CC(=O)N[C@H]1[C@H]([C@H](O)[C@H](O)CO)O[C@@](O[C@@H]2[C@H](O)[C@H](O[C@H]3[C@H](O[C@@H]4O[C@@H](C)[C@@H](O)[C@H](O)[C@@H]4O)[C@H](NC(C)=O)[C@H](NC(=O)[C@H](C)NC(=O)[C@H](CC(=O)O)NC(=O)CNC(=O)[C@@H](N)CCCN=C(N)N)O[C@H]3CO)O[C@@H](CO)[C@@H]2O)(C(=O)O)C[C@H]1O		26
CC(=O)N[C@@H]1[C@H](OCCCCCCNC(=O)CCC(=O)O)O[C@@H](CO)[C@@H](O[C@@H]2O[C@@H](CO)[C@H](O)[C@H](O[C@]3(C(=O)O)C[C@@H](O)[C@@H](NC(C)=O)[C@H]([C@H](O)[C@H](O)CO)O3)[C@@H]2O)[C@@H]1O[C@@H]1O[C@@H](C)[C@@H](O)[C@H](O)[C@@H]1O [Sialyl-LewisX Conjugate]	1500	
